In the supplement of paper PMC10307832:

Assays:
Experiment in all cases: relative viability (nuclei count vs DMSO), 5 days (fraction); higher = more cells survive
201T = tested on: 201T
Summary of the method: (§1)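 For relative viability, nuclei counts in treated wells were divided by those in vehicle wells. Lung cancer cell lines had been pin-tool dosed in 1536-well plates the day after seeding and cultured for 5 days, then fixed and stained in one step (final 0.05% Triton X-100, 1% formaldehyde, 1 ug/ml Hoechst) and imaged at 4×. Doses were one drug alone or a fixed anchor-drug dose plus five library-drug doses (not always all listed) in √10 steps, and values are duplicate-plate medians.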

BEN = tested on: BEN
Summary of the method: as §1

CAL-12T = tested on: CAL-12T
Summary of the method: as §1

HCC-78 = tested on: HCC-78
Summary of the method: as §1

HOP-62 = tested on: HOP-62
Summary of the method: as §1

LCLC-97TM1 = tested on: LCLC-97TM1
Summary of the method: as §1

LOU-NH91 = tested on: LOU-NH91
Summary of the method: as §1

NCI-H1355 = tested on: NCI-H1355
Summary of the method: as §1

NCI-H1395 = tested on: NCI-H1395
Summary of the method: as §1

NCI-H1563 = tested on: NCI-H1563
Summary of the method: as §1

NCI-H1651 = tested on: NCI-H1651
Summary of the method: as §1

NCI-H1793 = tested on: NCI-H1793
Summary of the method: as §1

NCI-H1915 = tested on: NCI-H1915
Summary of the method: as §1

NCI-H1944 = tested on: NCI-H1944
Summary of the method: as §1

NCI-H2126 = tested on: NCI-H2126
Summary of the method: as §1

NCI-H2347 = tested on: NCI-H2347
Summary of the method: as §1

NCI-H3122 = tested on: NCI-H3122
Summary of the method: as §1

NCI-H322M = tested on: NCI-H322M
Summary of the method: as §1

NCI-H441 = tested on: NCI-H441
Summary of the method: as §1

NCI-H650 = tested on: NCI-H650
Summary of the method: as §1

NCI-H838 = tested on: NCI-H838
Summary of the method: as §1

SK-LU-1 = tested on: SK-LU-1
Summary of the method: as §1

SW 1573 = tested on: SW 1573
Summary of the method: as §1

## CCNC(=O)c1noc(-c2cc(C(C)C)c(O)cc2O)c1-c1ccc(CN2CCOCC2)cc1 [Luminespib] + C[C@]1(O)C[C@@H](c2nc(-c3ccc4ccc(-c5ccccc5)nc4c3)c3c(N)nccn32)C1 [Linsitinib] (partner 1 µM)
201T; first compound 0.002 µM
  relative viability: 1.03
201T; first compound 0.006325 µM
  relative viability: 0.988
201T; first compound 0.02 µM
  relative viability: 0.872
201T; first compound 0.06325 µM
  relative viability: 1.08
201T; first compound 0.2 µM
  relative viability: 1.01
BEN; first compound 0.002 µM
  relative viability: 0.955
BEN; first compound 0.006325 µM
  relative viability: 0.892
BEN; first compound 0.02 µM
  relative viability: 0.427
BEN; first compound 0.06325 µM
  relative viability: 0.627
BEN; first compound 0.2 µM
  relative viability: 0.252
CAL-12T; first compound 0.002 µM
  relative viability: 0.761
CAL-12T; first compound 0.006325 µM
  relative viability: 0.787
CAL-12T; first compound 0.02 µM
  relative viability: 0.72
CAL-12T; first compound 0.06325 µM
  relative viability: 0.128
CAL-12T; first compound 0.2 µM
  relative viability: 0.115
HCC-78; first compound 0.002 µM
  relative viability: 0.485
HCC-78; first compound 0.06325 µM
  relative viability: 0.76
HCC-78; first compound 0.2 µM
  relative viability: 0.251
HOP-62; first compound 0.002 µM
  relative viability: 1.07
HOP-62; first compound 0.006325 µM
  relative viability: 0.958
HOP-62; first compound 0.02 µM
  relative viability: 0.945
HOP-62; first compound 0.06325 µM
  relative viability: 1.12
HOP-62; first compound 0.2 µM
  relative viability: 0.934
LCLC-97TM1; first compound 0.002 µM
  relative viability: 0.213
LCLC-97TM1; first compound 0.006325 µM
  relative viability: 0.199
LCLC-97TM1; first compound 0.02 µM
  relative viability: 0.154
LCLC-97TM1; first compound 0.06325 µM
  relative viability: 0.174
LCLC-97TM1; first compound 0.2 µM
  relative viability: 0.192
LOU-NH91; first compound 0.002 µM
  relative viability: 0.913
LOU-NH91; first compound 0.006325 µM
  relative viability: 0.923
LOU-NH91; first compound 0.02 µM
  relative viability: 0.649
LOU-NH91; first compound 0.06325 µM
  relative viability: 0.393
LOU-NH91; first compound 0.2 µM
  relative viability: 0.348
NCI-H1355; first compound 0.002 µM
  relative viability: 0.903
NCI-H1355; first compound 0.006325 µM
  relative viability: 0.785
NCI-H1355; first compound 0.02 µM
  relative viability: 0.425
NCI-H1355; first compound 0.06325 µM
  relative viability: 0.763
NCI-H1355; first compound 0.2 µM
  relative viability: 0.81
NCI-H1395; first compound 0.002 µM
  relative viability: 1.06
NCI-H1395; first compound 0.006325 µM
  relative viability: 1.02
NCI-H1395; first compound 0.02 µM
  relative viability: 0.759
NCI-H1395; first compound 0.06325 µM
  relative viability: 0.772
NCI-H1395; first compound 0.2 µM
  relative viability: 0.326
NCI-H1563; first compound 0.002 µM
  relative viability: 1.34
NCI-H1563; first compound 0.006325 µM
  relative viability: 1.13
NCI-H1563; first compound 0.02 µM
  relative viability: 1.11
NCI-H1563; first compound 0.06325 µM
  relative viability: 0.535
NCI-H1563; first compound 0.2 µM
  relative viability: 0.542
NCI-H1651; first compound 0.002 µM
  relative viability: 0.874
NCI-H1651; first compound 0.006325 µM
  relative viability: 0.983
NCI-H1651; first compound 0.02 µM
  relative viability: 1.08
NCI-H1651; first compound 0.06325 µM
  relative viability: 0.308
NCI-H1651; first compound 0.2 µM
  relative viability: 0.174
NCI-H1793; first compound 0.002 µM
  relative viability: 0.831
NCI-H1793; first compound 0.006325 µM
  relative viability: 0.798
NCI-H1793; first compound 0.02 µM
  relative viability: 0.326
NCI-H1793; first compound 0.06325 µM
  relative viability: 0.16
NCI-H1793; first compound 0.2 µM
  relative viability: 0.147
NCI-H1915; first compound 0.002 µM
  relative viability: 1.12
NCI-H1915; first compound 0.006325 µM
  relative viability: 1.09
NCI-H1915; first compound 0.02 µM
  relative viability: 1.02
NCI-H1915; first compound 0.06325 µM
  relative viability: 1.11
NCI-H1915; first compound 0.2 µM
  relative viability: 1.05
NCI-H1944; first compound 0.002 µM
  relative viability: 1.21
NCI-H1944; first compound 0.006325 µM
  relative viability: 1.1
NCI-H1944; first compound 0.02 µM
  relative viability: 0.791
NCI-H1944; first compound 0.06325 µM
  relative viability: 1.07
NCI-H1944; first compound 0.2 µM
  relative viability: 1.09
NCI-H2126; first compound 0.002 µM
  relative viability: 0.686
NCI-H2126; first compound 0.006325 µM
  relative viability: 0.652
NCI-H2126; first compound 0.02 µM
  relative viability: 0.536
NCI-H2126; first compound 0.06325 µM
  relative viability: 0.761
NCI-H2126; first compound 0.2 µM
  relative viability: 0.741
NCI-H2347; first compound 0.002 µM
  relative viability: 1.03
NCI-H2347; first compound 0.02 µM
  relative viability: 0.824
NCI-H2347; first compound 0.06325 µM
  relative viability: 0.924
NCI-H2347; first compound 0.2 µM
  relative viability: 0.404
NCI-H3122; first compound 0.002 µM
  relative viability: 0.936
NCI-H3122; first compound 0.006325 µM
  relative viability: 0.973
NCI-H3122; first compound 0.02 µM
  relative viability: 0.945
NCI-H3122; first compound 0.06325 µM
  relative viability: 0.172
NCI-H3122; first compound 0.2 µM
  relative viability: 0.146
NCI-H322M; first compound 0.002 µM
  relative viability: 0.805
NCI-H322M; first compound 0.006325 µM
  relative viability: 0.851
NCI-H322M; first compound 0.02 µM
  relative viability: 0.725
NCI-H322M; first compound 0.06325 µM
  relative viability: 0.998
NCI-H322M; first compound 0.2 µM
  relative viability: 0.963
NCI-H441; first compound 0.002 µM
  relative viability: 0.797
NCI-H441; first compound 0.006325 µM
  relative viability: 0.5
NCI-H441; first compound 0.02 µM
  relative viability: 0.485
NCI-H441; first compound 0.06325 µM
  relative viability: 0.108
NCI-H441; first compound 0.2 µM
  relative viability: 0.0934
NCI-H650; first compound 0.002 µM
  relative viability: 0.917
NCI-H650; first compound 0.006325 µM
  relative viability: 0.888
NCI-H650; first compound 0.02 µM
  relative viability: 0.497
NCI-H650; first compound 0.06325 µM
  relative viability: 0.0891
NCI-H650; first compound 0.2 µM
  relative viability: 0.117
NCI-H838; first compound 0.002 µM
  relative viability: 1
NCI-H838; first compound 0.006325 µM
  relative viability: 0.942
NCI-H838; first compound 0.02 µM
  relative viability: 0.77
NCI-H838; first compound 0.06325 µM
  relative viability: 0.13
NCI-H838; first compound 0.2 µM
  relative viability: 0.149
SK-LU-1; first compound 0.002 µM
  relative viability: 1.02
SK-LU-1; first compound 0.006325 µM
  relative viability: 0.89
SK-LU-1; first compound 0.02 µM
  relative viability: 0.474
SK-LU-1; first compound 0.06325 µM
  relative viability: 0.193
SK-LU-1; first compound 0.2 µM
  relative viability: 0.178
SW 1573; first compound 0.002 µM
  relative viability: 0.88
SW 1573; first compound 0.006325 µM
  relative viability: 0.594
SW 1573; first compound 0.02 µM
  relative viability: 0.707
SW 1573; first compound 0.06325 µM
  relative viability: 0.423
SW 1573; first compound 0.2 µM
  relative viability: 0.123
